# Test results published in US9775854B2 (Indiana University Research and Technology Corp., priority 2006, dated 2017).
# “Also recorded” adds a separate entry of the source.
# How the values were obtained:
# [1] = system: COS7 cells; experiment: Cytotoxicity (cell death, % inviability) in COS7 cells; format: cell-based
# Procedure: Gentamicin and various congeners isolated and purified by, for example, the HPLC techniques outlined in Sandoval et al. were tested to assess their level of cytotoxicity. Briefly, COS7 cells were grown in the presence of either 200 or 500 ug/ml of one of the following test compounds, the C1 or the C2 congeners of gentamicin or native gentamicin. As a control still another batch of COS7 cells were grown in absence of all of the test compounds.
# Referring now to FIG. 6 cell inviability was determined for cells exposed to no test compound, native gentamicin or a congener of gentamicin; in this graph a high value indicate […]. Cell death (% inviability) was determined for each of the six conditions.
# [2] = system: UGAC stop codon; experiment: Stop codon readthrough assay; format: cell-based; details: 200 ug/ml, 24 hours
# Procedure: The cells were exposed to 200 ug/ml of each compound for 24 hours.
# The method used to assess readthrough is as follows.
# In order to determine the optimal concentrations of the aminoglycosides to use in the mammalian translation system, increasing amounts of each aminoglycoside were added to a rabbit reticulocyte translation system while expressing the QX(N) (UGAC) construct. The effect of aminoglycoside addition on total protein synthesis was monitored by comparing the total amount of proteins synthesized in the presence and absence of various aminoglycosides. A range of aminoglycoside concentrations was then determined that allowed a maximal amount of termination suppression without inhibiting total protein synthesis more than two- to threefold. In vitro translation reactions were carried out using the TNT coupled transcription/translation system (Promega). […] The gel was dried and subjected to PhosphorImager analysis in order to quantitate the amount of truncated and full-length protein species. The percentage of readthrough was then calculated as the amount of full-length protein/(truncated+full-length species)×100.
# [3] = system: viable cells; experiment: Cytotoxicity by dye exclusion assay (FIG. 7); format: cell-based; details: viable cells treated vs untreated
# Procedure: FIG. 7 also includes information on the cell toxicity. Cytotoxicity was measured by comparing the number of viable cells in treated and untreated samples using a dye exclusion assay of the compounds tested. […] (the […]) was the most toxic compound tested 4.4 fold more toxic than the control (no added aminoglycoside) followed by […] (native gentamicin) 1.7 times more toxic than the control; the least toxic compound tested was […]
# [4] = system: LLC-PK1 proximal tubule cells
# Procedure: (§1) Differences in necrosis, apoptosis, and cell density among the various congeners on the human and porcine cell lines were determined using an ANOVA function with Systat 11 software (Systat Software, Point Richmond, Calif.). […] All reported values are mean±SEM.
# The nuclear dye propidium iodide is cell impermeant and labels only necrotic cells, characterized by permeable cell membranes; co-localization of the two dyes gives a reddish-pink color. […] Values are means±SEM. Bar=approximately 10 microns.
# The nuclear dyes propidium iodide and Hoechst 33342 were used as markers for necrosis and apoptosis, respectively.
# [5] = Nephrotoxicity in rats: serum creatinine after six daily doses
# Procedure: as §1
# We specifically used six daily doses for these studies to allow additional time for the C2 component to induce injury, because it is widely known that serum creatinine rises early in this model when native gentamicin is used.
# [6] = system: proximal convoluted tubules; experiment: Kidney morphology and histology in rats (H&E, PAS, modified Jablonski score, gentamicin immunofluorescence); format: in vivo, Sprague-Dawley rats; details: six doses
# Procedure: Morphologic evaluation of injury caused by gentamicin and its congeners was assessed by grading the extent of necrosis of the proximal convoluted tubules. Injury scores were assigned on the basis of the predominant pattern present. For indirect immunofluorescence, 100 μm-thick sections were cut on a vibratome and stained with the monoclonal anti-gentamicin antibody (Biodesign International, Saco, Me.) and a fluorescein-conjugated secondary antibody (Jackson Immunoresearch, West Grove, Pa.) and lightly counterstained with Alexa 647 phalloidin (Molecular Probes) to localize filamentous actin for visualization using confocal microscopy.
# Histological sections were viewed with a Wide field Nikon microscope with an attached color CCD camera (Nikon, Melville, N.Y.). Fluorescence images were acquired using a Bio-Rad MRC 1024 confocal microscope (Bio-Rad, Hercules, Calif.) on a Nikon platform (The Fryer Co., Huntley, Ill.). Co-localization studies with Texas Red dextran, FITC-Helixpontatia, and gentamicin were conducted on a Zeiss 510 confocal microscope with images illuminated and acquired sequentially to eliminate bleed-over emissions from the different fluorescence emission spectra.
# Again, these studies were conducted after 7 days of exposure, or six doses of gentamicin. This was to ensure that we would see any delayed nephrotoxicity from the […]. These studies occurred at a time when the native gentamicin-treated animals were recovering, as evidenced by a reduction in serum creatinine levels in these animals. Therefore, these studies likely underestimate the actual histological damage that occurred early on in animals treated with native gentamicin. […] In addition, large perinuclear vacuoles (FIG. 3 B, arrowheads) could be seen in the renal corticol area. […] Here, proximal tubules from native gentamicin treated rats contained cast material and shed cells in the lumen (thick arrow). In addition, many of the proximal table cells contained large vacuoles that localized around the nucleus (FIG. 3 B, arrowheads).
# Referring now to FIG. 3 D-E, thin histological sections also were stained with PAS to localize the glycocalyx that was associated with the brush border membrane of proximal tubules. […]
# Referring now to FIG. 3 G-H, when tissues from rats that were exposed to the native commercial gentamicin compound or the […] of gentamicin were processed for indirect immunofluorescence localization of gentamicin, a difference in the intracellular accumulation and distribution emerged. […] Tissue sections from rats that were treated with normal saline alone and processed identically for immunofluorescence localization produced no fluorescence associated with gentamicin localization (data not shown).
# [7] = system: dystrophin; experiment: Dystrophin immunohistochemistry in mdx mice after i.m. treatment; format: in vivo; details: about 1 or 5 mg/day, 7 days
# Procedure: Eight mdx mice are treated with I.M. injections of either gentamicin or the […] of gentamicin (C2 in Formula I) four of the mice receive either gentamicin or the […] at a dose of about 1 mg/day and the other four mice receive the same compounds at a dose of about 5 mg/day. The animals are dosed over a period of 7 days. […] All mice are sacrificed, their skeletal muscle and their hearts are frozen and cryostat sectioned. The presence of dystrophin in these sections is investigated by immunohistochemistry. Strong dystrophin immunostaining is observed in the normal skeletal and heart muscles. In the untreated mdx muscles, dystrophin immunostaining is observed only in a few revertant fibers. […] The dystrophin staining is less intense in the muscles of mice treated with […]. Therefore a dose of about 8 to 40 mg per Kg of body weight per day of either gentamicin or the […] of gentamicin successfully suppresses the premature stop codon by inserting an amino acid, and continuing translation of […] nucleic acids. Subcutaneous and intravenous administration will provide the same results. The duration of the course of treatment may vary. […]
# [8] = system: Bacillus subtilus; experiment: Bactericidal properties against Bacillus subtilus; format: cell-based
# Procedure: (§2) Referring now to Formula 1 and FIG. 1, 4 congeners can be isolated and purified from native gentamicin. Methods for isolating and purifying congeners include the following method. Briefly, separation of native gentamicin was carried out using a C18 column (250×4.60 mm) and the chromatograms was developed using a Waters 600e HPLC pump (Milford, Mass.). A gradient of 100% of a 0.1% (vol/vol) mixture of tri-fluoro-acetic acid in acetonitrile was used to develop the chronogram. […] There was no overlap between adjacent peaks. For all studies, the same lot of gentamicin was used. This ensured that the results obtained were independent of potential alteration in the ratio of gentamicin components. […] For additional discussion of this methodology please see, for example, Sandoval, et al.
# [9] = system: multi-drug resistant form of Klebsiella pneumoniae; experiment: Bactericidal properties against multi-drug resistant Klebsiella pneumoniae; format: cell-based
# Procedure: as §2
# [10] = system: Gram-positive and multi-drug-resistant Gram-negative bacteria; details: Sandoval et al.; cited from earlier work
# [11] = system: LLC-PK1 proximal tubule cells; details: results provided in Sandoval et al.; cited from earlier work
# [12] = system: LLC-PK1 cells; experiment: Long-term (24 h) exposure: lysosome and Golgi complex localization in LLC-PK1 cells; details: 24 h of continuous exposure
# Procedure: During this period of exposure to native gentamicin or the congeners, lysosomes were labeled by adding a 10,000 molecular weight rhodamine dextran to the culture medium (0.5 mg/ml; Molecular Probes). The cells then were fixed and stained for indirect immunofluorescence and visualized via confocal microscopy. Briefly, the Golgi complex was localized with a fluorescein-conjugated lectin from Helix pornotia at 5 μg/ml (EY Laboratories, San Mateo, Calif.) diluted in solution that contained the CY-5 conjugated secondary antibody that was used in the indirect immunolocalization of gentamicin. Visualization of nonlysosomal, cytosolic gentamicin was carried out as described previously, using a Tyramide Signal Amplification (Molecular Probes).
# In order to study long-term differences in the intracellular distribution of gentamicin, we undertook additional study of gentamicin distribution in LLC-PK1 cells. […]
# [13] = system: IDUA and p53 genes; details: cited from earlier work
# [14] = LLC-PK1 cells, 24 hours of exposure
molecule,measurement,setting,value
gentamicin C1 [reference compound],"toxicity ranking (cell death, % inviability)",[1]; 200 or 500 ug/ml,greatest toxicity
same,readthrough of the UGAC stop codon,[2],minimal readthrough
same,toxicity relative to control (no added aminoglycoside),[3],4.4 fold
gentamicin C2,"cell density, % of untreated (control) values",[4]; [14],80.3±5.7%
same,percentage of cell death (toxicity index),[4]; [14],3.1±1.3%
same,cytotoxicity in cell culture (in words),"[4]; cultured cells, 24 hours of continual exposure",minimal cytotoxicity; also recorded: markedly reduced toxicity; also recorded: minimal evidence of toxicity
same,change in serum creatinine (in words),"[5]; 100 mg/kg per day intraperitoneally, six daily doses",no elevation in serum creatinine
same,serum creatinine,"[5]; 100 mg/kg per day intraperitoneally, six daily doses, up to 24 hours after the last injection",≤ 0.2 mg/dL
same,functional and pathologic changes characteristic of gentamicin nephrotoxicity,[5]; animal studies,failed to induce
same,"renal injury, modified Jablonski score","[6]; rat cortex, compared with native gentamicin",significantly reduced; also recorded: significantly lower
same,"kidney morphology, H&E-stained sections","[6]; rats, 7 days of exposure",normal morphology
same,"lysosomal morphology in proximal tubule cells, indirect immunofluorescence","[6]; rats, 7 days of exposure",normal lysosomal morphology
same,"proximal tubular brush border, PAS staining","[6]; rats, 7 days of exposure",more abundant and enriched PAS staining
same,"toxicity (cell death, % inviability)",[1]; 200 ug/ml,virtually no toxicity
same,"toxicity (cell death, % inviability)",[1]; 500 ug/ml,only very minimal toxicity
same,readthrough of the UGAC stop codon,[2],intermediate effect on readthrough
same,toxicity relative to control (no added aminoglycoside),[3],no more toxic than the control
same,dystrophin immunostaining in skeletal and heart muscle,[7],detected by immunohistochemistry on all muscle fibers and all heart muscle cells
same,bactericidal properties,[8],excellent bactericidal properties
same,bactericidal properties,[9],excellent bactericidal properties
same,bactericidal potency compared with native gentamicin and other congeners,[10],as potent a bactericide
same,toxicity in cell culture,[11],nontoxic
same,Golgi complex staining with Helix pomatia lectin,[12],faint
same,lysosome appearance (Texas Red dextran),[12],"small, discrete vesicles found throughout the cellular cytosol"
NC[C@H]1O[C@H](O[C@H]2[C@H](O)[C@@H](O[C@H]3O[C@H](CO)[C@@H](O)[C@H](N)[C@H]3O)[C@H](N)C[C@@H]2N)[C@H](N)C[C@@H]1O [Tobramicin],premature stop codons overcome,[13],not
NCC[C@H](O)C(=O)N[C@@H]1C[C@H](N)[C@@H](O[C@H]2O[C@H](CN)[C@@H](O)[C@H](O)[C@H]2O)[C@H](O)[C@H]1O[C@H]1O[C@H](CO)[C@@H](O)[C@H](N)[C@H]1O [Amikacin],premature stop codons overcome,[13],can be overcome
